Results from publication PMC6657668, “Porcine Beta-Defensin 2 Provides Protection Against Bacterial Infection by a Direct Bactericidal Activity and Alleviates Inflammation via Interference With the TLR4/NF-κB Pathway” (Frontiers in Immunology, 2019).
Where a SMILES comes first, the peptide text is derived from it.

How the values were obtained:
p38 = assay: Western blot of p38 and p-p38 in RAW 264.7 cells; format: cell-based, mouse; conditions: LPS 30 min with various concentrations of PBD-2 (Figure S4)
Protocol: RAW 264.7 cells were treated with LPS (1 μg/ml) alone or together with PBD-2 (10 μg/mL). […] Proteins were firstly analyzed with SDS-PAGE and then electro-transferred onto a PVDF (#ISEQ00010, Biosharp®, Beijing, China) membrane. The PVDF membrane was blocked with 1/100 bovine serum albumin (BSA, #V900933-100G, VETEC, Sigma-Aldrich®, St. Louis, MO, USA) at 10 μg/ml at 37°C for 2 h, washed with PBST five times, incubated with the antisera against p-p65 (# 3033), p65 (# 4764), p-ERK (# 4370), ERK (# 4695), p-p38 (# 4511), p38 (# 8690), p-JNK (# 4668), JNK (# 9258) (Cell Signaling Technology®, Danvers, MA, USA), and β-actin (# AA128, Beyotime®, Shanghai, China) at 2 μg/ml at 37°C for 2 h and washed five times again. The PVDF membrane was subsequently incubated with 1 μg/ml secondary antibody, namely, goat anti-rabbit IgG (# 7074S, Cell Signaling Technology®, Danvers, MA, USA), at 37°C for 2 h and washed five times. Lastly, immune-reactive bands were detected using an ECF Western blot system (Tanon 5200 Multi, Shanghai, China) and quantified using AlphaImager 2200 analysis software.
Supplementary file Image_4.TIF: Figure S4 Effects of PBD-2 on ERK, p38, and JNK signaling pathways. Cells were treated with LPS for 30 min with or without various concentrations of PBD-2. […] The signal intensity of each band was quantified (B–D). […]

S. Typhimurium [1] = assay: Bactericidal activity assay (colony counting); conditions: 5000 CFU, 1 h, 37°C, n = 6
Protocol: S. Typhimurium cells were cultured to mid-log phase (OD600nm = 0.7) in TSB. The cultures were centrifuged for 10 min at 1,000 × g, and the cell pellets were diluted in assay medium (10 mM phosphate, pH 7.0, with 1/100 TSB). The antimicrobial activities of PBD-2, TG serum and tissue homogenates were determined by colony counting assay. The mice serum, caecum, colon, or duodenum homogenates were heat inactivated at 56°C for 20 min to exclude the possible effect of complement in tissues. As a control, PBD-2 solution in PBS (50 μg/ml) was also heat-treated at 56°C for 20 min. Afterwards, 5000 CFUs of S. Typhimurium were mixed with 100 μl of each sample in a centrifuge tube at 37°C for 1 h. After incubation, 10 serial dilutions from 10 to 1,000-fold in TSB were conducted, and the diluted bacterial cultures were transferred onto TSA plates and incubated at 37°C for 24 h. The numbers of bacterial CFUs were recorded.

NF-κB p65 = assay: Western blot of p65 and p-p65 in RAW 264.7 cells; format: cell-based, mouse
Protocol: RAW 264.7 cells were treated with LPS (1 μg/ml) alone or together with PBD-2 (10 μg/mL). After 6 h, the cells were lysed, and inflammatory proteins were detected through Western blot. Proteins were firstly analyzed with SDS-PAGE and then electro-transferred onto a PVDF (#ISEQ00010, Biosharp®, Beijing, China) membrane. The PVDF membrane was blocked with 1/100 bovine serum albumin (BSA, #V900933-100G, VETEC, Sigma-Aldrich®, St. Louis, MO, USA) at 10 μg/ml at 37°C for 2 h, washed with PBST five times, incubated with the antisera against p-p65 (# 3033), p65 (# 4764), p-ERK (# 4370), ERK (# 4695), p-p38 (# 4511), p38 (# 8690), p-JNK (# 4668), JNK (# 9258) (Cell Signaling Technology®, Danvers, MA, USA), and β-actin (# AA128, Beyotime®, Shanghai, China) at 2 μg/ml at 37°C for 2 h and washed five times again. The PVDF membrane was subsequently incubated with 1 μg/ml secondary antibody, namely, goat anti-rabbit IgG (# 7074S, Cell Signaling Technology®, Danvers, MA, USA), at 37°C for 2 h and washed five times. Lastly, immune-reactive bands were detected using an ECF Western blot system (Tanon 5200 Multi, Shanghai, China) and quantified using AlphaImager 2200 analysis software.

NF-κB = assay: mRNA level of NF-κB in RAW 264.7 cells (RT-PCR); format: cell-based, mouse; conditions: LPS 1 μg/ml with PBD-2 10 μg/mL, 4 h; n = 6
Protocol: The cDNA of the RAW 264.7 cells treated with LPS (1 μg/ml) alone or together with PBD-2 (10 μg/mL) for 4 h (n = 6 each group) was used as a template by using the primers NF-κB-01 ([…]) and NF-κB-02 ([…]) and the primers GAPDH-01 and GAPDH-02 for the housekeeping gene GAPDH to detect the expression level of NF-κB. The relative expression level of NF-κB is shown as 2^−ΔCt (mean ± SEM), where ΔCt = Ct NF−κB−CtGAPDH. The protocol consisted of 40 replication cycles. The Ct values above 34 cycles were considered non-detectable.

RAW 264.7 cells = assay: Cytokine levels of RAW 264.7 cells after treatment with S. Typhimurium (ELISA); format: cell-based, mouse; conditions: S. Typhimurium MOI = 10:1, 1 h, n = 6
Protocol: RAW 264.7 cells and RAW 264.7 cells stably expressing PBD-2 were pre-treated with S. Typhimurium at MOI = 10:1 for 1 h or with LPS (1 μg/ml) for 16 h, washed with PBS twice and incubated with RPMI 1640 that contained PBS or PBD-2 (10 μg/mL) for 16 h. RAW 264.7 cells stably expressing PBD-2 were maintained in RPMI 1640 that contained PBS for 16 h (n = 6 for each group). The expression levels of proinflammatory cytokines in the cell culture supernatant were determined through ELISA in accordance with the manufacturer's instruction.

S. Typhimurium [2] = assay: Body weight loss of mice infected with S. Typhimurium; conditions: PBD-2 expressed in TG mice; oral 2.5 × 10^8 CFU; days 1-5; n = 7; vs WT
Protocol: Four infection experiments were conducted to determine the resistance to S. Typhimurium of the TG mice. For body weight measurements, 7 WT and 7 TG mice were orally administered with 2.5 × 10^8 CFU of S. Typhimurium, and the body weight of each mouse was measured on days 1, 2, 3, 4, and 5 after infection. For the detection of the tissue weight ratios, bacterial loads in tissues and tissue lesions after S. Typhimurium infection, 9 WT and 8 TG mice were orally administered with 2.5 × 10^8 CFU of S. Typhimurium. The spleen, caecum and body weights of the mice were weighed at 24 h post-infection. The bacterial loads in the tissues were also measured ([26]). The spleen and caecum were weighed and homogenized in cold PBS at a ratio of 4 ml per gram of tissue and coated plates. The bacterial numbers in the homogenates were counted by serially diluting the homogenates and spreading on plates. Caeca were harvested for histopathological analysis by using the methods described above. The intestinal damage, including epithelial damage, submucosal oedema, and neutrophil aggregation, was observed.

[3] = transgenic expression; ref [24]; cited from earlier work
[4] = format: binding, Escherichia coli O55:B5; conditions: ITC, 25°C; PBD-2 0.75 mM in syringe, LPS in cell (0.010 to 0.050 mM; Figure S6: 0.050 mM)
[5] = PBD-2 expressed in TG mice, uninfected, n ≥ 6, vs WT
Protocol: After the mice were euthanized, blood samples of TG and WT mice were collected. Alanine aminotransferase, aspartate aminotransferase, albumin, globin, albumin/globin, total bilirubin, direct bilirubin, urea, creatinine, urea/creatinine, glucose, potassium, and sodium were analyzed using a blood routine analyser (Mindray, Shenzhen China). Their heart, liver, spleen, lung, kidney, brain and intestinal segments were harvested. The histological morphologies of the mice organs and the body and organ weights of male and female mice were characterized.
(B) Comparison of body weights between TG and WT mice. (C) Comparison of weight ratios of organs, including heart, liver, spleen, lung, kidney, and brain (organ weight/body weight) between TG and WT mice. Data are represented as means ± SD (WT, n ≥ 6; TG, n ≥ 6).

[6] = ref [11]; cited from earlier work
bacteria = conditions: ref [11], cited from earlier work
Text: Another fact is that some vi ...

[7] = PBD-2 expressed by RAW 264.7–PBD-2 cells

With `CC[C@H](C)[C@H](NC(=O)[C@@H]1CSSC[C@@H]2NC(=O)[C@@H]3CCCN3C(=O)[C@H](CO)NC(=O)[C@H](Cc3ccccc3)NC(=O)[C@H](CC(N)=O)NC(=O)[C@@H]3CSSC[C@H](NC(=O)[C@H]([C@@H](C)O)NC(=O)CNC(=O)[C@H](CCC(=O)O)NC(=O)[C@H]([C@@H](C)CC)NC(=O)[C@H](CCCNC(=N)N)NC(=O)[C@H](CC(N)=O)NC(=O)[C@H](Cc4ccccc4)NC(=O)[C@H](CC(C)C)NC(=O)[C@@H]4CCCN4C2=O)C(=O)N[C@@H](Cc2ccc(O)cc2)C(=O)N[C@@H](CO)C(=O)NCC(=O)N[C@@H](CCCCN)C(=O)N[C@@H](C)C(=O)N[C@@H](CCCCN)C(=O)N[C@@H](CSSC[C@H](NC(=O)[C@@H](NC(=O)[C@H](Cc2ccc(O)cc2)NC(=O)[C@H](Cc2c[nH]cn2)NC(=O)[C@@H](N)CC(=O)O)[C@@H](C)CC)C(=O)N[C@@H](C)C(=O)N[C@@H](CCCCN)C(=O)N[C@@H](CCCCN)C(=O)NCC(=O)NCC(=O)N[C@@H]([C@@H](C)O)C(=O)N3)C(=O)N1)C(=O)N[C@@H](CCCNC(=N)N)C(=O)O` [PBD-2, Porcine beta-defensin 2] (HELM PEPTIDE1{D.H.Y.I.C.A.K.K.G.G.T.C.N.F.S.P.C.P.L.F.N.R.I.E.G.T.C.Y.S.G.K.A.K.C.C.I.R}$PEPTIDE1,PEPTIDE1,5:R3-34:R3|PEPTIDE1,PEPTIDE1,12:R3-27:R3|PEPTIDE1,PEPTIDE1,17:R3-35:R3$$$V2.0; N-terminus and C-terminus assumed) the “LPS-induced phosphorylation of p38” value (p38) was “did not affect the LPS-induced phosphorylation of ERK, p38, and JNK”, the “number of survived bacteria, caecum homogenate” value (S. Typhimurium [1]; heat-inactivated (56°C, 20 min) caecum homogenate of PBD-2 TG mice vs WT) was “the number of the survived bacteria in the serum and tissue homogenates of the WT mice was significantly higher than that in the serum and tissue homogenates of the TG mice (p < 0.05)” and the “number of survived bacteria, colon homogenate” value (S. Typhimurium [1]; heat-inactivated (56°C, 20 min) colon homogenate of PBD-2 TG mice vs WT) was “the number of the survived bacteria in the serum and tissue homogenates of the WT mice was significantly higher than that in the serum and tissue homogenates of the TG mice (p < 0.05)”. The “number of survived bacteria, serum” value (S. Typhimurium [1]; heat-inactivated (56°C, 20 min) serum of PBD-2 TG mice vs WT) was “the number of the survived bacteria in the serum and tissue homogenates of the WT mice was significantly higher than that in the serum and tissue homogenates of the TG mice (p < 0.05)”, the “LPS-induced NF-κB p65 phosphorylation” value (NF-κB p65; LPS 1 μg/ml, PBD-2 10 μg/mL (legend: various concentrations), 6 h) was “suppress the LPS-induced NF-κB p65 phosphorylation” and the “activation of NF-κB by PBD-2 itself” value (NF-κB p65; PBD-2 without LPS (Figure 5D)) was “did not activate NF-κB”. The “mRNA levels of NF-κB after LPS induction” value (NF-κB) was “reduce the mRNA levels of NF-κB after LPS induction (p < 0.01)”, the “level of IL-1β” value (RAW 264.7 cells; [7]) was “significantly lower in the RAW 264.7–PBD-2 cells than in the RAW 264.7 cells after S. Typhimurium treatment (p < 0.01)” and the “level of IL-6” value (RAW 264.7 cells; [7]) was “significantly lower in the RAW 264.7–PBD-2 cells than in the RAW 264.7 cells after S. Typhimurium treatment (p < 0.01)”. For the same compound, the “level of TNF-α” value (RAW 264.7 cells; [7]) was “significantly lower in the RAW 264.7–PBD-2 cells than in the RAW 264.7 cells after S. Typhimurium treatment (p < 0.01)”, the “secretion of IL-1β” value (RAW 264.7 cells; synthetic PBD-2 10 μg/mL, 16 h) was “significantly inhibited the secretion of TNF-α, IL-6, and IL-1β after S. Typhimurium treatment (p < 0.05)” and the “secretion of IL-6” value (RAW 264.7 cells; synthetic PBD-2 10 μg/mL, 16 h) was “significantly inhibited the secretion of TNF-α, IL-6, and IL-1β after S. Typhimurium treatment (p < 0.05)”. For the same compound, the “secretion of TNF-α” value (RAW 264.7 cells; synthetic PBD-2 10 μg/mL, 16 h) was “significantly inhibited the secretion of TNF-α, IL-6, and IL-1β after S. Typhimurium treatment (p < 0.05)”, the body weight loss (S. Typhimurium [2]) was “less degree of body weight loss from day 2 onwards (p < 0.05)” and the “expression level of PBD-2 in the TG mice” value [3] was ≤ 10^4 ng/g tissue. The “binding to LPS” value [4] was “did not bind to LPS”, the “ratio of organ weight to total body weight” value ([5]; heart, liver, spleen, lung, kidney, brain) was “did not significantly differ from the WT mice in terms of body weight (Figure S1B) and the ratio of organ weight to total body weight” and the body weight [5] was “did not significantly differ from the WT mice in terms of body weight”. For the same compound, the hemolytic activity [6] was “limited hemolytic activity”, the “antibacterial activity, concentration dependence” value (bacteria; in vitro) was “positively related to its concentration” and the “bactericidal activity in vitro” value (bacteria) was “high and broad spectrum of bactericidal activity in vitro”.
